Series [1] has as its system HEK293. Kind of series: Cytotoxicity against HEK293 cells incubated for 48 hrs by MTT assay. Type of series: toxicity, cell-based. The following applies: human, hek293, 48 h. (In general: Tetrazolium dyes change colour on reduction, which living cells bring about.)
The target of series [2] is Vascular endothelial growth factor receptor 2 (Homo sapiens) (UniProt P35968). Kind of series: Induction of VEGFR2 degradation in human U87 cells upto 10 uM incubated for 48 hrs by Western blot analysis. In kind it is cell-based. In general terms: A western blot detects proteins with antibodies after separation by electrophoresis.
Series [3] deals with Platelet-derived growth factor receptor beta (Homo sapiens) (UniProt P09619). In words: Induction of PDGFR-beta degradation in human U87 cells upto 10 uM incubated for 48 hrs by Western blot analysis. Type of series: cell-based.
Series [4] concerns U-87 MG. In words: Induction of cell cycle arrest at S phase in human U87 cells incubated for 48 hrs in presence of 4-(4-(3-(4-chloro-3-(trifluoromethyl)phenyl)ureido)phenoxy)-N-(prop-2-yn-1-yl)picolinamide by PI staining based flow cytometry. As to conditions: U-87MG ATCC, dose 0.1-1 µM. Type of series: functional. For orientation: In flow cytometry, cells or beads pass a laser one at a time.

The test system of series [5] is A549. In words: Antiproliferative activity against human A549 cells incubated for 48 hrs in presence of 4-(4-(3-(4-chloro-3-(trifluoromethyl)phenyl)ureido)phenoxy)-N-(prop-2-yn-1-yl)picolinamide by MTT assay. Type of series: functional, cell-based. The following applies: A549, 48 h.
Series [6] concerns HEK293. Kind of series: Cytotoxicity against HEK293 cells at high concentration incubated for 48 hrs in presence of 4-(4-(3-(4-chloro-3-(trifluoromethyl)phenyl)ureido)phenoxy)-N-(prop-2-yn-1-yl)picolinamide by MTT assay. The following applies: human, hek293, 48 h. In kind it is toxicity, cell-based.
Series [7] relates to U-87 MG. In words: Antiproliferative activity against human U87 cells incubated for 48 hrs in presence of 4-(4-(3-(4-chloro-3-(trifluoromethyl)phenyl)ureido)phenoxy)-N-(prop-2-yn-1-yl)picolinamide by MTT assay. Type of series: functional, cell-based, U-87MG ATCC.
The test system of series [8] is U-87 MG. Kind of series: Antiproliferative activity against human U87 cells incubated for 48 hrs by MTT assay. Type of series: functional, cell-based, U-87MG ATCC.
The target in series [9] is Vascular endothelial growth factor receptor 2 (Homo sapiens) (UniProt P35968). In words: Induction of VEGFR2 degradation in human U87 cells at 2 uM incubated for 48 hrs in presence of 4-(4-(3-(4-chloro-3-(trifluoromethyl)phenyl)ureido)phenoxy)-N-(prop-2-yn-1-yl)picolinamide by Western blot analysis. Type of series: cell-based.
The target of series [10] is T1, Ephrin type-B receptor 4 (Homo sapiens) (UniProt P54760).
T1 sequence (whole entry): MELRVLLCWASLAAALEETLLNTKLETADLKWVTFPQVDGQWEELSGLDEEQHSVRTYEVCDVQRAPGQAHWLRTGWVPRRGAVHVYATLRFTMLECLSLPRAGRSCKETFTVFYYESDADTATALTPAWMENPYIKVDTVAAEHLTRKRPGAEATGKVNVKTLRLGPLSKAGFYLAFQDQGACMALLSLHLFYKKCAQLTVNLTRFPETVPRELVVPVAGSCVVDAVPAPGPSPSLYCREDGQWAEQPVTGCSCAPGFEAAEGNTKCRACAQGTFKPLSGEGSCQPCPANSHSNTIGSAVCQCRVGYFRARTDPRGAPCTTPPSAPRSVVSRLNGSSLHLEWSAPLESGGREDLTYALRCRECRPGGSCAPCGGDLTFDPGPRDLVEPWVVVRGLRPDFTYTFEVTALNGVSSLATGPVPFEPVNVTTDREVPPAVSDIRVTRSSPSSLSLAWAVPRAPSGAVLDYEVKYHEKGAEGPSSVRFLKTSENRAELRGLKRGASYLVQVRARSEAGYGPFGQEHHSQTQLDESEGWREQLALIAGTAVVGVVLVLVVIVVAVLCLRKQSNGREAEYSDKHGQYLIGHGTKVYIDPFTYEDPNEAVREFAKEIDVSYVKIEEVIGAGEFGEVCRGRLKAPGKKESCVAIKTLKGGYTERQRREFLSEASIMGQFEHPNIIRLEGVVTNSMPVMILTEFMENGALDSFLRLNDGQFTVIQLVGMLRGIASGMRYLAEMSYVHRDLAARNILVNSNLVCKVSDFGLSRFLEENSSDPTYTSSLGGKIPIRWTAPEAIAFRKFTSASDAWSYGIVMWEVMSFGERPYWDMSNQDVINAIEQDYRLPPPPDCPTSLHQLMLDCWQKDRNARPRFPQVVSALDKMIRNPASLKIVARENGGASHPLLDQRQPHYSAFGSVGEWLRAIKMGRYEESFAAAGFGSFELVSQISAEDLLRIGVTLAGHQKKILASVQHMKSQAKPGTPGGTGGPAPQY
In words: Induction of EphB4 degradation in human U87 cells upto 10 uM incubated for 48 hrs by Western blot analysis. In kind it is cell-based.

Series [11] has as its target T1, Ephrin type-B receptor 4 (Homo sapiens). In words: Induction of EphB4 degradation in human U87 cells at 2 uM incubated for 48 hrs in presence of 4-(4-(3-(4-chloro-3-(trifluoromethyl)phenyl)ureido)phenoxy)-N-(prop-2-yn-1-yl)picolinamide by Western blot analysis. In kind it is cell-based.
In series [12] the test system is HEK293. In words: Cytotoxicity against HEK293 cells at low concentration incubated for 48 hrs in presence of 4-(4-(3-(4-chloro-3-(trifluoromethyl)phenyl)ureido)phenoxy)-N-(prop-2-yn-1-yl)picolinamide by MTT assay. The following applies: human, hek293, 48 h. Type of series: toxicity, cell-based.
For series [13], the target named is Serine/threonine-protein kinase B-raf (Homo sapiens) (UniProt P15056). Kind of series: Induction of BRAF degradation in human U87 cells upto 10 uM incubated for 48 hrs by Western blot analysis. In kind it is cell-based.
The nature of series [14]: Stability of compound in DMEM medium by HPLC analysis. In kind it is physicochemical.
In series [15] the test system is A549. In words: Antiproliferative activity against human A549 cells incubated for 48 hrs by MTT assay. In kind it is functional, cell-based. The following applies: A549, 48 h.
Series [16] has as its system HEK293. In words: Cytotoxicity against HEK293 cells at high concentration incubated for 48 hrs by MTT assay. Type of series: toxicity, cell-based. The following applies: human, hek293, 48 h.
In series [17] the test system is HEK293. Kind of series: Cytotoxicity against HEK293 cells at low concentration incubated for 48 hrs by MTT assay. Type of series: toxicity, cell-based. The following applies: human, hek293, 48 h.

Results on three compounds are retold here after ChEMBL document CHEMBL5620355, “Discovery of intracellular self-assembly protein degraders driven by tumor-specific activatable bioorthogonal reaction” (Eur J Med Chem, 2023).

The source made the active and inactive calls. The calls are words filed in the database; no cut-off is given here.

Vascular endothelial growth factor receptor 2 (Homo sapiens), sequence (P35968 whole entry): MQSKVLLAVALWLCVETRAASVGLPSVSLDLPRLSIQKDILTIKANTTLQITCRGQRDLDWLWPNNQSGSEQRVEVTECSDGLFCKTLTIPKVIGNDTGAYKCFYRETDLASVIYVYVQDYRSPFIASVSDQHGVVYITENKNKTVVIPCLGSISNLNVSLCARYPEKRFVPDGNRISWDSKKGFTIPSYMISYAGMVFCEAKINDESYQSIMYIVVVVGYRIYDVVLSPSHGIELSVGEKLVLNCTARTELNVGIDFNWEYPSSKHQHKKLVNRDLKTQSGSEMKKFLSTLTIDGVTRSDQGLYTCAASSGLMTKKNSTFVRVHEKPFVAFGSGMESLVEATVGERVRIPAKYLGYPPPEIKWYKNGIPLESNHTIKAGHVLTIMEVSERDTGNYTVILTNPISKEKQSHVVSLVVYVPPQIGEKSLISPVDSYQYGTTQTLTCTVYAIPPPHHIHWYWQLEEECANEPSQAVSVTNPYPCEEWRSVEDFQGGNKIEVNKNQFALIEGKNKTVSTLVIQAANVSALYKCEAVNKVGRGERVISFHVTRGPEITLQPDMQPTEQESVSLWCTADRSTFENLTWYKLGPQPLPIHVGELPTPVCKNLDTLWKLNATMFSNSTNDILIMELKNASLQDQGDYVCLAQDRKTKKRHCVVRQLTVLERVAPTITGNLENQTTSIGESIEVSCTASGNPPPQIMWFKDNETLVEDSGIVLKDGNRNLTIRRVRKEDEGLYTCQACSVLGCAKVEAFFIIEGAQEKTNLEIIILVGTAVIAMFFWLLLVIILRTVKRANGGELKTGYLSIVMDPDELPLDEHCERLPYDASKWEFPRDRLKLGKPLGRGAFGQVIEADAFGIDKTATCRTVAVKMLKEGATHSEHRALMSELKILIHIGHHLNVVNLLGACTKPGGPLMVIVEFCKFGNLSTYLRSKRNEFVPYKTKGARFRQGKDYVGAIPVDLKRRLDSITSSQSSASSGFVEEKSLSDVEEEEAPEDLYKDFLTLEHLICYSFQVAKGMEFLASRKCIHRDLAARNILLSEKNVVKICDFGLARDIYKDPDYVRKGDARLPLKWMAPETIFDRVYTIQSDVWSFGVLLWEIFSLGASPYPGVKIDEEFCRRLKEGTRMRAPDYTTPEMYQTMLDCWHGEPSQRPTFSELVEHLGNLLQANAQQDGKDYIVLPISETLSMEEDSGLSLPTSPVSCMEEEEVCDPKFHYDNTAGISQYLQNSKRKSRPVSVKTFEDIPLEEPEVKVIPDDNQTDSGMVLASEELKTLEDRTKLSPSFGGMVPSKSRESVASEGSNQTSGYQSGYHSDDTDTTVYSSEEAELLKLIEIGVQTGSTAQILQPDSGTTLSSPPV
Serine/threonine-protein kinase B-raf (Homo sapiens), sequence (P15056 whole entry): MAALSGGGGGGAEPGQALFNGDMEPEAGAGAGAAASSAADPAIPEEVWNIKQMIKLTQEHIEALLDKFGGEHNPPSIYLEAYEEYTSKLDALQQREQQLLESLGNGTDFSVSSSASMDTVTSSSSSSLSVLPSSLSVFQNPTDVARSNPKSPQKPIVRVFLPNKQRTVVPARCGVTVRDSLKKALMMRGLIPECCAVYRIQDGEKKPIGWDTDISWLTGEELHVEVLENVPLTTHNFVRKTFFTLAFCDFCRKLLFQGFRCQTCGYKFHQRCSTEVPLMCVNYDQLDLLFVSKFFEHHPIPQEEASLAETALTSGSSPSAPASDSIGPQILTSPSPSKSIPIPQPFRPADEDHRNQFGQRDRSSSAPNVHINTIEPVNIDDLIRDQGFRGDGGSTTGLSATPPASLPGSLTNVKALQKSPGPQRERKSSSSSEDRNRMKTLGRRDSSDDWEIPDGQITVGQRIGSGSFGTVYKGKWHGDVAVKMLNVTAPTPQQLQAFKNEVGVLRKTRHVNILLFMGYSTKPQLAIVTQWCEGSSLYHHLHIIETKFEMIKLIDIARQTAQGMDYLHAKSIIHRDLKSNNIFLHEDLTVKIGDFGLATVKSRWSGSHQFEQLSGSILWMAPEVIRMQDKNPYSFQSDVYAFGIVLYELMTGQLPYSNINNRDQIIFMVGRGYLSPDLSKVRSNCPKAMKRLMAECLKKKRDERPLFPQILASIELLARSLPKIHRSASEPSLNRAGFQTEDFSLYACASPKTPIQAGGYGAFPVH
Platelet-derived growth factor receptor beta (Homo sapiens), sequence (P09619 whole entry): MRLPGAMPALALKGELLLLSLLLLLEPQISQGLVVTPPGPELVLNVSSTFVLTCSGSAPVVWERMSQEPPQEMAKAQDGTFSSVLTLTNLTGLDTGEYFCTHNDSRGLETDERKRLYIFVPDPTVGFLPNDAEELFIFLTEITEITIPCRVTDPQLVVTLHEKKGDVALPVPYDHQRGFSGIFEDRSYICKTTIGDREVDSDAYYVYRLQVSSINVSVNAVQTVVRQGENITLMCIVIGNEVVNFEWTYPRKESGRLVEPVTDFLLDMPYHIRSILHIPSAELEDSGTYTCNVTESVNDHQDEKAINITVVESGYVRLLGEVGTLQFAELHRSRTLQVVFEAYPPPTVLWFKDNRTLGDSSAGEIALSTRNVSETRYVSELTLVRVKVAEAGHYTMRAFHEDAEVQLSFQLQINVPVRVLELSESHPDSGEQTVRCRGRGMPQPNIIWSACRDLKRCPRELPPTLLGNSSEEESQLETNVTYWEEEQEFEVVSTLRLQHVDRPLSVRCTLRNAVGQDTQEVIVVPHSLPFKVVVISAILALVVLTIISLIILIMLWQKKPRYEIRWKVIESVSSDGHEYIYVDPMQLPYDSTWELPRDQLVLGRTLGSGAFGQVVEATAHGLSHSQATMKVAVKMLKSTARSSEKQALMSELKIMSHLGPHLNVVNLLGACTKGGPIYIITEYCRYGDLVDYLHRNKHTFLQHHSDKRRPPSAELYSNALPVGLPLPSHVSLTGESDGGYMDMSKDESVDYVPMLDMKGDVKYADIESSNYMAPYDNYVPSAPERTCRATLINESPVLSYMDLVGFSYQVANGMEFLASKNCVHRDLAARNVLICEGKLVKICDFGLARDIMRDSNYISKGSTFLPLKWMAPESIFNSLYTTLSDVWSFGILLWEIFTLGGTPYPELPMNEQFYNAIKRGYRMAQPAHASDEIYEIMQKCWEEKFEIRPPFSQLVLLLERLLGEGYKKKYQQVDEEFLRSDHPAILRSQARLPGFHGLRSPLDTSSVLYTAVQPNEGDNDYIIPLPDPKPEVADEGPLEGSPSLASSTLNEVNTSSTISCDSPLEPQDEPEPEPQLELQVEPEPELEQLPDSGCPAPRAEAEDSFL

By IC50 is commonly meant the concentration that inhibits the measured activity by half. For the compound `Cc1ncsc1-c1ccc(CNC(=O)[C@@H]2C[C@@H](O)CN2C(=O)[C@@H](NC(=O)CCCCN=[N+]=[N-])C(C)(C)C)cc1`, the Activity result was “Non-Toxic” in series [1], “Dose-Dependent Effect” in series [4], “Toxic” in series [6] and “Non-Toxic” in series [12]. For the same compound, the outcome in series [2], in [3], in series [10] and in series [13] was inactive. The IC50 in series [5] is 1.06 µM; in series [7], 16 µM; in series [8], above 50 µM; in series [15], above 50 µM. Moreover, the result in series [9] and in series [11] was Active. Besides, the Stability result in [14] is listed as “Stable”.

Consider `CNC(=O)c1cc(Oc2ccc(NC(=O)Nc3ccc(Cl)c(C(F)(F)F)c3)cc2)ccn1` [SORAFENIB], for which the values for the Activity result in series [16] and in [17] were “Toxic” and “Non-Toxic”, respectively. Further, the values for the IC50 in series [8] and in [15] were 1.28 µM and 8.26 µM, respectively.

Turning to `Nc1cccc2c1C(=O)N(C1CCC(=O)NC1=O)C2=O` (stereo not given) [POMALIDOMIDE], in series [14], the Stability entry is listed as “Unstable”.
